The structures appear in SMILES notation.

Sequence of STING (Q86WV6 whole entry R71H/G230A/H232R/R293Q): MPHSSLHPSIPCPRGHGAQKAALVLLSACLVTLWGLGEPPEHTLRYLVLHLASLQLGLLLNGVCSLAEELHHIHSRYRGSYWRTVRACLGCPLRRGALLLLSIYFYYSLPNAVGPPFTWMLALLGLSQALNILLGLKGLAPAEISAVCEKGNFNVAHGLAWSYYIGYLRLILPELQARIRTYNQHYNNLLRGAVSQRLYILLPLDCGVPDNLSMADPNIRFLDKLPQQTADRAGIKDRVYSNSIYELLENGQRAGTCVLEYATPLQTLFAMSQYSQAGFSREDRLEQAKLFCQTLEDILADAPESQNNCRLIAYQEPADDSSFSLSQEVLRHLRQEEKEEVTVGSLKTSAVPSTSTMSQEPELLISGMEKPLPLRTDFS

For this test, the target named is STING (Homo sapiens, UniProt Q86WV6, G230A/H232R/R293Q/R71H). The test can be described thus: STING reporter assay in THP1-Dual KO-IFNAR2 cells (2′3′cGAMP stimulation, luciferase reporter). Format: cell-based. The settings on record: 15 μM 2′3′cGAMP stimulation, 24 h, read-out: Pharmaron, THP1_IFNAR2 STING 24 h Luci Normalized: GeoMean EC50. Put shortly:
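EC50 from secreted luciferase (QUANTI-Luc Plus luminescence of supernatant) after 24 h at 37 °C, 5% CO2. Cells: THP1-Dual KO-IFNAR2, treated with compound (0.0017-100 μM final) plus lipofected 2′3′cGAMP at 15 μM final.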
On the technique in general: Reporter assays use an easily measured gene product as a stand-in for the process of interest.
The term EC50 denotes the midpoint of the concentration-response curve. As for `CC(=O)Nc1c[nH]c2ccc(CCOc3cccc(CC(F)(F)F)c3)cc12` [Compound 441, N-(5-{2-[3-(2,2,2-trifluoroethyl)phenoxy]ethyl}-1H-indol-3-yl)acetamide], the EC50 lay within 0.04 to 0.2 µM.

Consider `COCCOCC(=O)Nc1c[nH]c2ccc(OCc3ccc(C(F)(F)F)cc3)cc12` [Compound 404, 2-(2-methoxyethoxy)-N-(5-((4-(trifluoromethyl)benzyl)oxy)-1H-indol-3-yl)acetamide], for which the EC50 is 1 to 5 µM.

On to `C[C@]1(C(=O)Nc2c[nH]c3ccc(OCCc4ccc(C(F)(F)F)cc4)cc23)C[C@H](CO)C1` [Compound 530, trans-3-(hydroxymethyl)-1-methyl-N-(5-(4-(trifluoromethyl)phenethoxy)-1H-indol-3-yl)cyclobutane-1-carboxamide], for which the EC50 was in the range of 0.04 to 0.2 µM.

As to `O=C(Nc1c[nH]c2ccc(O[C@H]3C[C@@H](c4ccc(C(F)(F)F)cc4)C3)cc12)C1(C(F)(F)F)CC1` [Compound 353, 1-(trifluoromethyl)-N-(5-(cis-3-(4-(trifluoromethyl)phenyl)cyclobutoxy)-1H-indol-3-yl)cyclopropane-1-carboxamide], the EC50 lay within 0.2 to 1 µM.

For the compound `CC(=O)Nc1c[nH]c2ccc(CO[C@H]3C[C@@H](c4ccc(C(F)(F)F)cc4)C3)cc12` [Compound 500, N-(5-((cis-3-(4-(trifluoromethyl)phenyl)cyclobutoxy)methyl)-1H-indol-3-yl)acetamide], the EC50 was in the range of 0.04 to 0.2 µM.

In the case of `CC(=O)Nc1c[nH]c2ncc(OCCc3ccc(C(F)(F)F)cc3)cc12` [Compound 267, N-(5-(4-(trifluoromethyl)phenethoxy)-1H-pyrrolo[2,3-b]pyridin-3-yl)acetamide], the EC50 lay in the range of 1 to 5 µM.

Turning to `O=C(COCC(F)(F)F)Nc1c[nH]c2ccc(OCC[C@@H]3C[C@@H]4CN(CC(F)(F)F)C[C@@H]4C3)cc12` [Compound 434, 2-(2,2,2-trifluoroethoxy)-N-(5-(2-((3aR,5r,6aS)-2-(2,2,2-trifluoroethyl)octahydrocyclopenta[c]pyrrol-5-yl)ethoxy)-1H-indol-3-yl)acetamide], the concentration for a half-maximal effect (EC50) was in the range of 0.04 to 0.2 µM.

Take `COCCCC(=O)Nc1c[nH]c2ccc(OCC[C@@H]3C[C@@H]4CN(CC(F)(F)F)C[C@@H]4C3)cc12` [Compound 520, 4-methoxy-N-(5-(2-((3aR,5r,6aS)-2-(2,2,2-trifluoroethyl)octahydrocyclopenta[c]pyrrol-5-yl)ethoxy)-1H-indol-3-yl)butanamide]: the EC50 fell in the range of 0.04 to 0.2 µM.

Regarding `N#C[C@H]1C[C@@H]1C(=O)Nc1c[nH]c2ccc(OCC[C@@H]3C[C@@H]4CN(CC(F)(F)F)C[C@@H]4C3)cc12` [Compound 340, (1S,2S)-2-cyano-N-(5-(2-((3aR,5r,6aS)-2-(2,2,2-trifluoroethyl)octahydrocyclopenta[c]pyrrol-5-yl)ethoxy)-1H-indol-3-yl)cyclopropane-1-carboxamide], the EC50 is 1 to 5 µM.

For `CO[C@H]1C[C@H](C(=O)Nc2c[nH]c3ccc(OCc4ccc(C(F)(F)F)cc4)cc23)C1` [Compound 300, trans-3-methoxy-N-(5-((4-(trifluoromethyl)benzyl)oxy)-1H-indol-3-yl)cyclobutane-1-carboxamide], the EC50 was 0.04 to 0.2 µM.

With `CC1(C(=O)Nc2c[nH]c3ccc(CC(O)Cc4ccc(C(F)(F)F)cn4)cc23)CC1` (centres unmarked) [Compound 540, N-(5-(2-hydroxy-3-(5-(trifluoromethyl)pyridin-2-yl)propyl)-1H-indol-3-yl)-1-methylcyclopropane-1-carboxamide], the EC50 lay in the range of 1 to 5 µM.

As for `CC(=O)Nc1c[nH]c2ccc(OC3CN(c4ccc(C(F)(F)F)cc4)C3)cc12` [Compound 233, N-(5-((1-(4-(trifluoromethyl)phenyl)azetidin-3-yl)oxy)-1H-indol-3-yl)acetamide], the EC50 lay within 0.04 to 0.2 µM.

As for `O=C(CC(O)C(F)(F)F)Nc1c[nH]c2ccc(OCC[C@@H]3C[C@@H]4CN(CC(F)(F)F)C[C@@H]4C3)cc12` (stereo partly drawn) [Compound 433, 4,4,4-trifluoro-3-hydroxy-N-(5-(2-((3aR,5r,6aS)-2-(2,2,2-trifluoroethyl)octahydrocyclopenta[c]pyrrol-5-yl)ethoxy)-1H-indol-3-yl)butanamide], the EC50 lay in the range of 0.2 to 1 µM.

As to `CC1(C(=O)Nc2c[nH]c3ccc(OCc4ccc(C(F)(F)F)cc4)cc23)COC1` [Compound 166, 3-methyl-N-(5-((4-(trifluoromethyl)benzyl)oxy)-1H-indol-3-yl)oxetane-3-carboxamide], the EC50 lay within 0.04 to 0.2 µM.

As for `CC(=O)Nc1c[nH]c2ccc(CCOC3CN(CC(F)(F)F)C3)cc12` [Compound 377, N-(5-(2-((1-(2,2,2-trifluoroethyl)azetidin-3-yl)oxy)ethyl)-1H-indol-3-yl)acetamide], the half-maximal effective concentration (EC50) lay in the range of 5 to 100 µM.

As to `CC(CCc1ccc(C(F)(F)F)cc1)c1ccc2[nH]cc(NC(=O)C3CCC3)c2c1` (centres unmarked) [Compound 131, N-(5-(4-(4-(trifluoromethyl)phenyl)butan-2-yl)-1H-indol-3-yl)cyclobutanecarboxamide], the EC50 is 1 to 5 µM.

As to `CC(=O)Nc1c[nH]c2ccc(OCC[C@@H]3C[C@@H]4CN(CC(F)F)C[C@@H]4C3)cc12` [Compound 313, N-(5-(2-((3aR,5r,6aS)-2-(2,2-difluoroethyl)octahydrocyclopenta[c]pyrrol-5-yl)ethoxy)-1H-indol-3-yl)acetamide], the EC50 fell in the range of 1 to 5 µM.

`O=C(Nc1c[nH]c2ccc(O[C@H]3C[C@H](c4ccc(C(F)(F)F)cc4)C3)cc12)C1COC1` [Compound 518, N-(5-(trans-3-(4-(trifluoromethyl)phenyl)cyclobutoxy)-1H-indol-3-yl)oxetane-3-carboxamide]: the EC50 fell in the range of 0.2 to 1 µM.

Consider `CC(C)(O)CC(=O)Nc1c[nH]c2ccc(OCCc3ccc(C(F)(F)F)cc3)cc12` [Compound 519, 3-hydroxy-3-methyl-N-(5-(4-(trifluoromethyl)phenethoxy)-1H-indol-3-yl)butanamide], for which the EC50 lay in the range of 0.04 to 0.2 µM.

For `CC(=O)Nc1c[nH]c2ccc(CCOc3ccnc(OC(F)F)c3)cc12` [Compound 491, N-[5-(2-{[2-(difluoromethoxy)pyridin-4-yl]oxy}ethyl)-1H-indol-3-yl]acetamide], the EC50 lay in the range of 0.2 to 1 µM.

As to `CC(=O)Nc1c[nH]c2ccc(OCCc3ccc(C(F)(F)F)cc3)nc12` [Compound 248, N-(5-(4-(trifluoromethyl)phenethoxy)-1H-pyrrolo[3,2-b]pyridin-3-yl)acetamide], the EC50 was 1 to 5 µM.

With `CC(=O)Nc1c[nH]c2ccc(CC3(c4ccc(C(F)(F)F)cc4)CCOC3)cc12` (centres unmarked) [Compound 507, N-(5-((3-(4-(trifluoromethyl)phenyl)tetrahydrofuran-3-yl)methyl)-1H-indol-3-yl)acetamide], the EC50 lay in the range of 5 to 100 µM.

On to `CN1CC(C(=O)Nc2c[nH]c3ccc(OCCc4ccc(C(F)(F)F)cc4)cc23)C1` [Compound 311, 1-methyl-N-(5-(4-(trifluoromethyl)phenethoxy)-1H-indol-3-yl)azetidine-3-carboxamide], for which the EC50 is 1 to 5 µM.

With `CC(=O)Nc1c[nH]c2ccc(CCOc3ccc(C(F)(F)F)cn3)cc12` [Compound 215, N-(5-(2-((5-(trifluoromethyl)pyridin-2-yl)oxy)ethyl)-1H-indol-3-yl)acetamide], the EC50 lay within 0.2 to 1 µM.

As to `CC(=O)Nc1c[nH]c2ccc(OC3CCN(c4ccc(C(F)(F)F)cc4)C3)cc12` (centres unmarked) [Compound 494, N-(5-((1-(4-(trifluoromethyl)phenyl)pyrrolidin-3-yl)oxy)-1H-indol-3-yl)acetamide], the EC50 was in the range of 0.2 to 1 µM.

`C[C@H]1C[C@@H](C(=O)Nc2c[nH]c3ccc(OCC[C@@H]4C[C@@H]5CN(CC(F)(F)F)C[C@@H]5C4)cc23)C1` [Compound 150, (1R,3S)—N-(5-{2-[(3aR,5S,6aS)-2-(2,2,2-trifluoroethyl)-octahydrocyclopenta[c]pyrrol-5-yl]ethoxy}-1H-indol-3-yl)-3-methylcyclobutane-1-carboxamide]: the EC50 lay in the range of 0.2 to 1 µM.

`CC(=O)Nc1c[nH]c2c(C)cc(COCc3ccc(C(F)(F)F)cc3)cc12` [Compound 272, N-(7-methyl-5-(((4-(trifluoromethyl)benzyl)oxy)methyl)-1H-indol-3-yl)acetamide]: the EC50 is 1 to 5 µM.

Take `CC1(C(=O)Nc2c[nH]c3ccc(O[C@H]4C[C@@H](c5ccc(C(F)(F)F)cc5)C4)cc23)CCOCC1` [Compound 363, 4-methyl-N-(5-(cis-3-(4-(trifluoromethyl)phenyl)cyclobutoxy)-1H-indol-3-yl)tetrahydro-2H-pyran-4-carboxamide]: the EC50 was 0.2 to 1 µM.

Turning to `CO[C@H]1C[C@@](C)(C(=O)Nc2c[nH]c3ccc(OCC[C@@H]4C[C@@H]5CN(CC(F)(F)F)C[C@@H]5C4)cc23)C1` [Compound 515, (1s,3S)-3-methoxy-1-methyl-N-(5-(2-((3aR,5r,6aS)-2-(2,2,2-trifluoroethyl)octahydrocyclopenta[c]pyrrol-5-yl)ethoxy)-1H-indol-3-yl)cyclobutane-1-carboxamide], the EC50 lay in the range of 1 to 5 µM.

For the compound `COCCOCC(=O)Nc1c[nH]c2ccc(OCC[C@@H]3C[C@@H]4CN(CC(F)(F)F)C[C@@H]4C3)cc12` [Compound 408, 2-(2-methoxyethoxy)-N-(5-(2-((3aR,5r,6aS)-2-(2,2,2-trifluoroethyl)octahydrocyclopenta[c]pyrrol-5-yl)ethoxy)-1H-indol-3-yl)acetamide], the EC50 is 0.04 to 0.2 µM.

As to `CC1(C(=O)Nc2c[nH]c3ccc(OC4CC(c5ccc(C(F)(F)F)nc5)C4)cc23)CC1` (centres unmarked) [Compound 376, 1-methyl-N-(5-(3-(6-(trifluoromethyl)pyridin-3-yl)cyclobutoxy)-1H-indol-3-yl)cyclopropane-1-carboxamide], the EC50 was 0.2 to 1 µM.

With `O=C(Nc1c[nH]c2ccc(O[C@H]3C[C@@H](c4ccc(C(F)(F)F)cc4)C3)cc12)C1CC1` [Compound 266, N-(5-(cis-3-(4-(trifluoromethyl)phenyl)cyclobutoxy)-1H-indol-3-yl)cyclopropanecarboxamide], the EC50 was in the range of 0.04 to 0.2 µM.

(Values after patent publication US12503436B2, “Compounds and compositions for treating conditions associated with STING activity” (NOVARTIS PHARMA AG, priority 2021, dated 2025).)
